ChEMBL document CHEMBL3885881, “DrugMatrix”

Species on record: Rattus norvegicus
Assay: DrugMatrix - Regimen: Daily Repeat
Format: toxicity, organism-based, Sprague-Dawley
Design: regimen Daily Repeat, gender Male, age 6-8 weeks
Details: in vivo, po, route oral GAVAGE, vehicle 100 % WATER; for BASOPHIL / EOSINOPHIL / ERYTHROCYTE COUNT / HEMATOCRIT / HEMOGLOBIN / LEUKOCYTE COUNT / LYMPHOCYTE / MEAN CORPUSCULAR HEMOGLOBIN / MEAN CORPUSCULAR HEMOGLOBIN CONCENTRATION / MEAN CORPUSCULAR VOLUME / MONOCYTE / NEUTROPHIL / PLATELET COUNT: tissue Blood; for ALANINE AMINOTRANSFERASE / ALBUMIN / ALKALINE PHOSPHATASE / ASPARTATE AMINOTRANSFERASE / BLOOD UREA NITROGEN / CARBON DIOXIDE / CHLORIDE / CHOLESTEROL / CREATINE PHOSPHOKINASE / CREATININE / GLUCOSE / LACTATE DEHYDROGENASE / LIPASE / PHOSPHORUS / POTASSIUM / SODIUM / TOTAL BILIRUBIN / TOTAL PROTEIN / URIC ACID: tissue Plasma
[1] = 0 mg/kg, 96 h, dose level Control, time 4 day
[2] = 0 mg/kg, […], dose level Control, time 6 day
[3] = 0 mg/kg, […], dose level Control, time 14 day
[4] = 4000 mg/kg, 96 h, dose level High, time 4 day
[5] = 4000 mg/kg, […], dose level High, time 6 day
[6] = 4000 mg/kg, […], dose level High, time 14 day

CC(C)=O [ACETONE]
BASOPHIL [1]: 0.47% | EOSINOPHIL [1]: 0.58% | ERYTHROCYTE COUNT [1]: 6.84 x10E6/uL | HEMATOCRIT [1]: 44.27% | HEMOGLOBIN [1]: 14.08 G/DL | LEUKOCYTE COUNT [1]: 13.39 x10E3/uL | LYMPHOCYTE [1]: 83.57% | MEAN CORPUSCULAR HEMOGLOBIN [1]: 20.57 pg | MEAN CORPUSCULAR HEMOGLOBIN CONCENTRATION [1]: 31.77 G/DL | MEAN CORPUSCULAR VOLUME [1]: 64.68 fL | MONOCYTE [1]: 1.92% | NEUTROPHIL [1]: 12.95% | PLATELET COUNT [1]: 1533.67 x10E3/uL | ALANINE AMINOTRANSFERASE [1]: 28.17 u/L | ALBUMIN [1]: 3.82 G/DL | ALKALINE PHOSPHATASE [1]: 354.33 u/L | ASPARTATE AMINOTRANSFERASE [1]: 73.83 u/L | BLOOD UREA NITROGEN [1]: 16 mg/dL | CARBON DIOXIDE [1]: 27.17 mmol/L | CHLORIDE [1]: 104.83 MEQ/L | CHOLESTEROL [1]: 83.33 mg/dL | CREATINE PHOSPHOKINASE [1]: 288 u/L | CREATININE [1]: 0.33 mg/dL | GLUCOSE [1]: 181.33 mg/dL | LACTATE DEHYDROGENASE [1]: 173.17 u/L | LIPASE [1]: 17.67 u/L | PHOSPHORUS [1]: 11.5 mg/dL | POTASSIUM [1]: 6.8 MEQ/L | SODIUM [1]: 147 MEQ/L | TOTAL BILIRUBIN [1]: 0.35 mg/dL | TOTAL PROTEIN [1]: 6.35 G/DL | URIC ACID [1]: 1.55 mg/dL | BASOPHIL [2]: 0.33% | EOSINOPHIL [2]: 0.85% | ERYTHROCYTE COUNT [2]: 6.98 x10E6/uL | HEMATOCRIT [2]: 38.58% | HEMOGLOBIN [2]: 14.25 G/DL | LEUKOCYTE COUNT [2]: 11.01 x10E3/uL | LYMPHOCYTE [2]: 85.07% | MEAN CORPUSCULAR HEMOGLOBIN [2]: 20.47 pg | MEAN CORPUSCULAR HEMOGLOBIN CONCENTRATION [2]: 31.45 G/DL | MEAN CORPUSCULAR VOLUME [2]: 64.9 fL | MONOCYTE [2]: 1.9% | NEUTROPHIL [2]: 11.42% | PLATELET COUNT [2]: 1289.67 x10E3/uL | BASOPHIL [3]: 0.52% | EOSINOPHIL [3]: 0.55% | ERYTHROCYTE COUNT [3]: 7.72 x10E6/uL | HEMATOCRIT [3]: 51.87% | HEMOGLOBIN [3]: 15.32 G/DL | LEUKOCYTE COUNT [3]: 16.2 x10E3/uL | LYMPHOCYTE [3]: 85.13% | MEAN CORPUSCULAR HEMOGLOBIN [3]: 19.85 pg | MEAN CORPUSCULAR HEMOGLOBIN CONCENTRATION [3]: 29.52 G/DL | MEAN CORPUSCULAR VOLUME [3]: 67.17 fL | MONOCYTE [3]: 1.7% | NEUTROPHIL [3]: 11.6% | PLATELET COUNT [3]: 1104.17 x10E3/uL | ALANINE AMINOTRANSFERASE [2]: 28.17 u/L | ALBUMIN [2]: 3.78 G/DL | ALKALINE PHOSPHATASE [2]: 385.33 u/L | ASPARTATE AMINOTRANSFERASE [2]: 78 u/L | BLOOD UREA NITROGEN [2]: 16.83 mg/dL | CARBON DIOXIDE [2]: 26.67 mmol/L | CHLORIDE [2]: 106.83 MEQ/L | CHOLESTEROL [2]: 82.67 mg/dL | CREATINE PHOSPHOKINASE [2]: 225.5 u/L | CREATININE [2]: 0.27 mg/dL | GLUCOSE [2]: 179.5 mg/dL | LACTATE DEHYDROGENASE [2]: 98.33 u/L | LIPASE [2]: 14.67 u/L | PHOSPHORUS [2]: 12.28 mg/dL | POTASSIUM [2]: 7.03 MEQ/L | SODIUM [2]: 150.33 MEQ/L | TOTAL BILIRUBIN [2]: 0.38 mg/dL | TOTAL PROTEIN [2]: 6.45 G/DL | URIC ACID [2]: 1.6 mg/dL | ALANINE AMINOTRANSFERASE [3]: 37 u/L | ALBUMIN [3]: 4.13 G/DL | ALKALINE PHOSPHATASE [3]: 342 u/L | ASPARTATE AMINOTRANSFERASE [3]: 71 u/L | BLOOD UREA NITROGEN [3]: 16.5 mg/dL | CARBON DIOXIDE [3]: 28.17 mmol/L | CHLORIDE [3]: 104 MEQ/L | CHOLESTEROL [3]: 70.67 mg/dL | CREATINE PHOSPHOKINASE [3]: 287.67 u/L | CREATININE [3]: 0.38 mg/dL | GLUCOSE [3]: 150.17 mg/dL | LACTATE DEHYDROGENASE [3]: 81.33 u/L | LIPASE [3]: 16 u/L | PHOSPHORUS [3]: 11.32 mg/dL | POTASSIUM [3]: 6.22 MEQ/L | SODIUM [3]: 147.33 MEQ/L | TOTAL BILIRUBIN [3]: 0.43 mg/dL | TOTAL PROTEIN [3]: 6.55 G/DL | URIC ACID [3]: 1.38 mg/dL | BASOPHIL [4]: 0.37% | EOSINOPHIL [4]: 0.2% | ERYTHROCYTE COUNT [4]: 7.37 x10E6/uL | HEMATOCRIT [4]: 47.5% | HEMOGLOBIN [4]: 15.37 G/DL | LEUKOCYTE COUNT [4]: 10.01 x10E3/uL | LYMPHOCYTE [4]: 77.97% | MEAN CORPUSCULAR HEMOGLOBIN [4]: 20.83 pg | MEAN CORPUSCULAR HEMOGLOBIN CONCENTRATION [4]: 32.37 G/DL | MEAN CORPUSCULAR VOLUME [4]: 64.47 fL | MONOCYTE [4]: 2.73% | NEUTROPHIL [4]: 18.23% | PLATELET COUNT [4]: 1486.67 x10E3/uL | ALANINE AMINOTRANSFERASE [4]: 47 u/L | ALBUMIN [4]: 3.73 G/DL | ALKALINE PHOSPHATASE [4]: 277.67 u/L | ASPARTATE AMINOTRANSFERASE [4]: 87.33 u/L | BLOOD UREA NITROGEN [4]: 12.67 mg/dL | CARBON DIOXIDE [4]: 30.67 mmol/L | CHLORIDE [4]: 103.33 MEQ/L | CHOLESTEROL [4]: 117.33 mg/dL | CREATINE PHOSPHOKINASE [4]: 390.33 u/L | CREATININE [4]: 0.53 mg/dL | GLUCOSE [4]: 176.33 mg/dL | LACTATE DEHYDROGENASE [4]: 159 u/L | LIPASE [4]: 27 u/L | PHOSPHORUS [4]: 11 mg/dL | POTASSIUM [4]: 5.6 MEQ/L | SODIUM [4]: 149 MEQ/L | TOTAL BILIRUBIN [4]: 0.27 mg/dL | TOTAL PROTEIN [4]: 6.37 G/DL | URIC ACID [4]: 1.23 mg/dL | BASOPHIL [5]: 0.23% | EOSINOPHIL [5]: 0.27% | ERYTHROCYTE COUNT [5]: 7.31 x10E6/uL | HEMATOCRIT [5]: 47.27% | HEMOGLOBIN [5]: 14.77 G/DL | LEUKOCYTE COUNT [5]: 10.16 x10E3/uL | LYMPHOCYTE [5]: 86.07% | MEAN CORPUSCULAR HEMOGLOBIN [5]: 20.17 pg | MEAN CORPUSCULAR HEMOGLOBIN CONCENTRATION [5]: 31.23 G/DL | MEAN CORPUSCULAR VOLUME [5]: 64.67 fL | MONOCYTE [5]: 2.77% | NEUTROPHIL [5]: 9.93% | PLATELET COUNT [5]: 1168.67 x10E3/uL | BASOPHIL [6]: 0.3% | EOSINOPHIL [6]: 0.38% | ERYTHROCYTE COUNT [6]: 8.11 x10E6/uL | HEMATOCRIT [6]: 55.22% | HEMOGLOBIN [6]: 16.28 G/DL | LEUKOCYTE COUNT [6]: 7.38 x10E3/uL | LYMPHOCYTE [6]: 78.4% | MEAN CORPUSCULAR HEMOGLOBIN [6]: 20.06 pg | MEAN CORPUSCULAR HEMOGLOBIN CONCENTRATION [6]: 29.48 G/DL | MEAN CORPUSCULAR VOLUME [6]: 68.1 fL | MONOCYTE [6]: 2.1% | NEUTROPHIL [6]: 18.48% | PLATELET COUNT [6]: 1123.2 x10E3/uL | ALANINE AMINOTRANSFERASE [5]: 59.33 u/L | ALBUMIN [5]: 3.83 G/DL | ALKALINE PHOSPHATASE [5]: 274 u/L | ASPARTATE AMINOTRANSFERASE [5]: 91.33 u/L | BLOOD UREA NITROGEN [5]: 17.33 mg/dL | CARBON DIOXIDE [5]: 27.67 mmol/L | CHLORIDE [5]: 107 MEQ/L | CHOLESTEROL [5]: 112 mg/dL | CREATINE PHOSPHOKINASE [5]: 187.67 u/L | CREATININE [5]: 0.37 mg/dL | GLUCOSE [5]: 172.33 mg/dL | LACTATE DEHYDROGENASE [5]: 78 u/L | LIPASE [5]: 11.33 u/L | PHOSPHORUS [5]: 12.07 mg/dL | POTASSIUM [5]: 6.83 MEQ/L | SODIUM [5]: 152 MEQ/L | TOTAL BILIRUBIN [5]: 0.33 mg/dL | TOTAL PROTEIN [5]: 6.57 G/DL | URIC ACID [5]: 1.5 mg/dL | ALANINE AMINOTRANSFERASE [6]: 84.2 u/L | ALBUMIN [6]: 4.12 G/DL | ALKALINE PHOSPHATASE [6]: 230.4 u/L | ASPARTATE AMINOTRANSFERASE [6]: 95.6 u/L | BLOOD UREA NITROGEN [6]: 15.2 mg/dL | CARBON DIOXIDE [6]: 30.6 mmol/L | CHLORIDE [6]: 104 MEQ/L | CHOLESTEROL [6]: 129.2 mg/dL | CREATINE PHOSPHOKINASE [6]: 256 u/L | CREATININE [6]: 0.54 mg/dL | GLUCOSE [6]: 144.8 mg/dL | LACTATE DEHYDROGENASE [6]: 59 u/L | LIPASE [6]: 22.2 u/L | PHOSPHORUS [6]: 11.14 mg/dL | POTASSIUM [6]: 6.2 MEQ/L | SODIUM [6]: 149.8 MEQ/L | TOTAL BILIRUBIN [6]: 0.42 mg/dL | TOTAL PROTEIN [6]: 6.66 G/DL | URIC ACID [6]: 1.5 mg/dL
